Data from patent US20120100109A1, “Method for increasing the replication of oncolytic HSVs in highly resistant tumor cells using mTOR pathway and PI3K inhibitors” (priority 2010, published 2012).

Assays:
MCF-7 = assay: Baco-1 virus yield with or without rapamycin, MCF-7 cells; type: cell-based, human; settings: MCF-7 (breast); Baco-1 yield, well with rapamycin / well without
Protocol: (§1) A. EC9706 cells were either preincubated with rapamycin overnight (Pre-Inf) or incubated with the drug during the virus infection (During-Inf). They were then infected with Baco-1 at 0.1 pfu/cell and for 72 h. Fold increase in virus yield was calculated by dividing […]. […] B. MCF-7 and HeLa cells were infected with Baco-1 at 0.01 pfu/cell for 1 h. Then the cells were cultured in medium without (control) or with rapamycin at a concentration of 100 nM for 72 h before harvesting for virus titration.

PANC-1 = assay: Baco-1 virus yield with or without rapamycin, PANC-1 cells; type: cell-based; settings: PANC-1 (pancreas); Baco-1 yield, well with rapamycin / well without
DLD-1 = assay: Baco-1 virus yield with or without rapamycin, DLD-1 cells; type: cell-based; settings: DLD-1 (colon); Baco-1 yield, well with rapamycin / well without
MPanc-96 = assay: Baco-1 virus yield with or without rapamycin, MPanc-96 cells; type: cell-based; settings: MPanc-96 (pancreas); Baco-1 yield, well with rapamycin / well without
MDA-MB-435 = assay: Baco-1 virus yield with or without rapamycin, MDA-MB-435 cells; type: cell-based; settings: MDA-MB-435 (breast); Baco-1 yield, well with rapamycin / well without
A549 = assay: Baco-1 virus yield with or without rapamycin, A549 cells; type: cell-based; settings: A549 (lung); Baco-1 yield, well with rapamycin / well without
EC9706 cells [1] = assay: Yield of other HSVs (17+, FusOn-H2, ApE-Mir-3) in EC9706 cells with or without rapamycin (FIG. 4); type: cell-based, human; settings: EC9706, 0.1 pfu/cell, rapamycin 100 nM
Excerpt: In another preferred embodiment of the present invention the potentiating effect of rapamycin on virus replication in highly resistant tumor cells is applied to other oncolytic HSVs, including strain 17 (17^+), a wild-type HSV-1, FusOn-H2, which is constructed from an HSV-2 by mutating the N-terminal region of the ICP 10 gene (Fu, et al., A Mutant Type 2 Herpes Simplex Virus Deleted for the Protein Kinase Domain of the ICP10 Gene Is a Potent Oncolytic Virus, Mol. Ther. 2006; 13:882-90), and ApE-Mir-3, an HSV-1-based oncolytic virus in which the glycoprotein H (gH) gene is controlled by tissue-specific microRNAs (miRNAs), including let-7 and mir-122. To that end, EC9706 cells are infected with these viruses at 0.1 pfu/cell for 1 h and then cultured the cells in media with or without rapamycin at a concentration of 100 nM. […] Replication of the HSV-2-based oncolytic virus, FusOn-H2, is increased by approximately 5-fold, similar to those seen with Baco-1.
EC9706 cells were infected with three other types of oncolytic HSVs, including FusOn-H2 (an oncolytic HSV derived from HSV-2, while Baco-1 was derived from HSV-1) and Ape-Mir3 (an oncolytic HSV specifically targets to hepatocellular carcinoma), at 0.1 pfu/cell and then incubated with medium without or with rapamycin (100 nM) for 72 h before harvesting for virus titration.

EC9706 cells [2] = assay: Baco-1 virus yield (plaque assay) with or without drug, EC9706 cells; type: cell-based, human
Protocol: as §1

HepG2 = assay: Baco-1 virus yield with or without rapamycin, HepG2 cells; type: cell-based; settings: HepG2 (liver); Baco-1 yield, well with rapamycin / well without
HuH-7 = assay: Baco-1 virus yield with or without rapamycin, HuH-7 cells; type: cell-based; settings: HuH-7 (liver); Baco-1 yield, well with rapamycin / well without
HCT116 = assay: Baco-1 virus yield with or without rapamycin, HCT116 cells; type: cell-based; settings: HCT116 (colon); Baco-1 yield, well with rapamycin / well without
SW480 = assay: Baco-1 virus yield with or without rapamycin, SW480 cells; type: cell-based; settings: SW480 (colon); Baco-1 yield, well with rapamycin / well without
[3] = system: resistant tumor cells (EC9706, MCF-7, HeLa); assay: Baco-1 virus yield in resistant tumor cells with or without rapamycin (FIG. 2B, 2C); type: cell-based
Protocol: FIG. 2. […] Virus yield, as determined by plaque assay. Values represent the mean±SD of triplicate experiments.
as §1

HeLa = assay: Baco-1 virus yield with or without rapamycin, HeLa cells; type: cell-based; settings: HeLa (cervix); Baco-1 yield, well with rapamycin / well without
Protocol: as §1

Hep3B = assay: Baco-1 virus yield with or without rapamycin, Hep3B cells; type: cell-based; settings: Hep3B (liver); Baco-1 yield, well with rapamycin / well without
293T = assay: Baco-1 virus yield with or without rapamycin, 293T cells; type: cell-based; settings: 293T (kidney); Baco-1 yield, well with rapamycin / well without
MDA-MB-231 = assay: Baco-1 virus yield with or without rapamycin, MDA-MB-231 cells; type: cell-based; settings: MDA-MB-231 (breast); Baco-1 yield, well with rapamycin / well without
[4] = system: highly resistant tumor cells (EC9706, MCF-7 and Hela cells); assay: Spread and replication of Baco-1 (GFP) in highly resistant tumor cell monolayers (FIG. 3B, 3C); type: cell-based; settings: infected cells incubated with inhibitor
Excerpt: Because Baco-1 contains the Green Fluorescent Protein (GFP) gene, it is possible to visualize GFP expression during virus infection and thus monitor the spread of virus among tumor cells.
The effect of PI3K inhibitor, LY294002, on the replication of Baco-1 is examined in these cells. The three highly resistant tumor cell lines are infected with Baco-1, with or without the presence of LY294002 in the medium.
In the same experiment, three highly resistant tumor cells (EC9706, MCF-7 and Hela cells) are infected with Baco-1 at 0.01 pfu/cell and incubated without or with rapamycin at a concentration of 100 nM, or LY294002 at 50 μM concentration.

Question: With CO[C@H]1C[C@@H]2CC[C@@H](C)[C@@](O)(O2)C(=O)C(=O)N2CCCC[C@H]2C(=O)O[C@H]([C@H](C)C[C@@H]2CC[C@@H](O)[C@H](OC)C2)CC(=O)[C@H](C)/C=C(\C)[C@@H](O)[C@@H](OC)C(=O)[C@H](C)C[C@H](C)/C=C/C=C/C=C/1C [rapamycin] as the compound, how does the “Fold of change in virus yield” value (MCF-7) read?
Answer: Its value is 4.86.

Question: What about the “Fold of change in virus yield” value (PANC-1) of the same compound?
Answer: The value was 0.99.

Question: And the “Fold of change in virus yield” value (DLD-1)?
Answer: Its value is 1.02.

Question: And the “Fold of change in virus yield” value (MPanc-96)?
Answer: Its value is 0.55.

Question: And the “Fold of change in virus yield” value (MDA-MB-435)?
Answer: The value was 0.6.

Question: And the “Fold of change in virus yield” value (A549)?
Answer: Its value is 0.42.

Question: What about the “Increase in replication of ApE-Mir-3” value (EC9706 cells [1]) of the same compound?
Answer: The value was 2.5 fold.

Question: And the “Increase in replication of FusOn-H2” value (EC9706 cells [1])?
Answer: The value was “approximately 5 fold”.

Question: And the “Increase in virus yield of strain 17+ (wild-type HSV-1)” value (EC9706 cells [1])?
Answer: The value was “more than 10 fold”.

Question: And the “Increase in yield of other oncolytic HSVs (pooled statement)” value (EC9706 cells [1]; 72 h)?
Answer: The value was 3-10 folds.

Question: And the “Fold of change in virus yield” value (EC9706 cells [2]; EC9706 (esophagus), Baco-1 yield, well with rapamycin / well without)?
Answer: Its value is 5.98.

Question: What about the “Fold increase in virus yield” value (EC9706 cells [2]; EC9706 cells, Baco-1 0.1 pfu/cell, 72 h, drug in the medium, FIG. 2A) of the same compound?
Answer: Its value is roughly 6 fold.

Question: And the “Fold of change in virus yield” value (HepG2)?
Answer: The value was 1.04.

Question: And the “Fold of change in virus yield” value (HuH-7)?
Answer: The value was 0.8.

Question: And the “Fold of change in virus yield” value (HCT116)?
Answer: The value was 0.5.

Question: What about the “Fold of change in virus yield” value (SW480) of the same compound?
Answer: Its value is 5.31.

Question: What about the “Fold increase in virus yield” value ([3]; MCF-7 and HeLa cells, Baco-1 0.01 pfu/cell, rapamycin 100 nM, 72 h, FIG. 2B) of the same compound?
Answer: Its value is 3-5 fold.

Question: And the “Virus yield in the presence of rapamycin” value ([3]; resistant tumor cells, Baco-1, FIG. 2C)?
Answer: Its value is ~5×10^6 pfu.

Question: And the “Fold of change in virus yield” value (HeLa)?
Answer: Its value is 3.0.

Question: And the “Fold of change in virus yield” value (Hep3B)?
Answer: Its value is 1.10.

Question: What about the “Fold of change in virus yield” value (293T) of the same compound?
Answer: Its value is 8.01.

Question: And the “Fold of change in virus yield” value (MDA-MB-231)?
Answer: Its value is 0.87.

Question: Which “Effect on Baco-1 replication” value [4] does the source give for CC[n+]1c(/C=C/N(C)c2ccccc2)n(-c2ccccc2)c2ccc(-c3nc4ccccc4s3)cc21.[I-] [Akt Inhibitor IV] here?
Answer: Its value is “does not result in any significant increase in Baco-1 replication”.
